# Values joined by “and” are separate entries in the source; they are usually repeats but may differ in a detail not shown here. Equal entries are not always repeated. “Also recorded” adds a separate entry of the source. Where two headings read alike, the source gives them in different places.
# Assays:
# [1] = system: HIV-1 BaL; experiment: Anti-HIV activity in infected TZM-bl cells (luciferase); type: cell-based; conditions: for anti-HIV activity compared with the vehicle control (HIV-1 BaL, TZM-bl): concentration not stated (range 0.01–100 µM)
# [2] = system: TZM-bl, HeLa, PBMC, and H9 cells; experiment: Cytotoxicity tests on TZM-bl, HeLa, PBMC and H9 cells (summary statements); type: cell-based, human; conditions: positive control AZT 60 µM
# Experimental: (§3) The in vitro cytotoxic effect of each of the flavonoids was determined by a resazurin fluorometric method (Cell Titer Blue Viability Assay, Promega Corp, Madison, WI), as described by O'Brien et al. [27]. TZM-bl and HeLa adherent cells were each separately seeded (1×10^5 cell/mL) into a 96 well plate (Greiner Bio-One North America, Inc Monroe, NC, USA). After 24 hours, their morphology was observed under an inverted microscope. The experimental natural compounds were then added to the cultured cells (n = 9) plates, and incubated for 24 hours. The cells were washed with pre-warmed PBS (Lonza Walkersville, Inc. Walkersville, MD) and the medium was replaced with medium pre-warmed to 37°C. Resazurin was added, and the cells were incubated for 3.5 hours. […] The cytotoxic effect of the three flavonoids on H9 and PBMC cells was determined using the same protocol.
# [3] = system: H9 cells; experiment: Cytotoxicity assay (resazurin fluorometric method), H9 cells; type: cell-based, human
# [4] = system: HIV-1 MN; experiment: Anti-HIV activity in H9 cells, HIV-1 MN (p24 ELISA); type: cell-based; conditions: for inhibition of infection / anti-HIV activity, H9 cells, HIV-1 MN: concentration not given
# Experimental: (§1) HIV-1 infection of H9 cells was performed as described by Gurgo et al. as follows: H9 cells were seeded at 1×10^5 cell/mL into a 24 well plate. […] After 48 hours of incubation, the supernatant was collected and frozen at −80°C. ELISA was performed to detect p24, and the cytotoxicity assay was done using the resazurin fluorometric method, as described previously.
# (§2) The HIV-1 p24 Antigen ELISA 2.0 Kit (ZeptoMetrix Corporation, Bufalo, NY) was used to monitor and determine the titer of HIV-1-based lentiviral samples, as described by Gonçalves et al.. For each sample (n = 9), a 225 µL volume was treated with 25 µL of lysing buffer. An ELISA array plate was washed three times with 300 µL/well of wash buffer in a microplate washer (MultiWash III, TriContinent, Grass Valley, CA), and 200 µL/well of each treated samples was transferred to the plate. The plate was incubated at 37°C for 3 hours, then washed six times, incubated for 1 hour with 100 µL/well of HIV-1 p24 detector antibody, washed six more times, and incubated 30 min at room temperature with 100 µL/well of substrate. The reaction was stopped by addition of stop solution (100 µL/well). The absorbance was determined using a microplate reader (SpectraMax M5, Molecular Devices, Sunnyvale, CA) at 450 nm, and the samples were calibrated against the HIV-1 p24 standard curve, generated from a series of standards loaded on the same plate.
# [5] = system: HeLa cells; experiment: Cytotoxicity assay (resazurin fluorometric method), HeLa cells; type: cell-based, human
# [6] = system: TZM-bl cells; experiment: Cell viability in the dual-chamber model (resazurin); conditions: resazurin method
# Experimental: The in vitro cytotoxic effect of each of the flavonoids was determined by a resazurin fluorometric method (Cell Titer Blue Viability Assay, Promega Corp, Madison, WI), as described by O'Brien et al. [27]. TZM-bl and HeLa adherent cells were each separately seeded (1×10^5 cell/mL) into a 96 well plate (Greiner Bio-One North America, Inc Monroe, NC, USA). After 24 hours, their morphology was observed under an inverted microscope. The experimental natural compounds were then added to the cultured cells (n = 9) plates, and incubated for 24 hours. The cells were washed with pre-warmed PBS (Lonza Walkersville, Inc. Walkersville, MD) and the medium was replaced with medium pre-warmed to 37°C. Resazurin was added, and the cells were incubated for 3.5 hours.
# Transwell assay inserts with 8 µM diameter pores and 0.3 cm^2 of culture surface (Greiner Bio-One, Monroe, NC,) were positioned in the wells of a 24-well plate. Then 1×10^4 HeLa cells were seeded into each transwell insert/apical chamber (using DMEM with 10% FBS). […] To assess confluence, the Trans Epithelial Electric Resistance (TEER) (described by Arien et al. [33]) of each HeLa cell layer was measured with a Millicell-ERS Volt-Ohm Meter (Millipore, Bedford, MA) before and after flavonoids treatments. Cell layer confluence in the transwell inserts was measured daily, until the optimal TEER (>150 Ohm/cm^2) was reached on day 4. […]
# [7] = system: HeLa cell layer; experiment: Trans Epithelial Electric Resistance (TEER) of HeLa cell layer in dual-chamber model; conditions: dual-chamber transwell insert
# Experimental: (§4) Transwell assay inserts with 8 µM diameter pores and 0.3 cm^2 of culture surface (Greiner Bio-One, Monroe, NC,) were positioned in the wells of a 24-well plate. Then 1×10^4 HeLa cells were seeded into each transwell insert/apical chamber (using DMEM with 10% FBS). TZM-bl cells (1×10^5) were seeded into the basal chambers below the inserts, and the plates were incubated at 37°C in humid air containing 5% CO2. To assess confluence, the Trans Epithelial Electric Resistance (TEER) (described by Arien et al. [33]) of each HeLa cell layer was measured with a Millicell-ERS Volt-Ohm Meter (Millipore, Bedford, MA) before and after flavonoids treatments. Cell layer confluence in the transwell inserts was measured daily, until the optimal TEER (>150 Ohm/cm^2) was reached on day 4. On day 4, the media in the basal chamber and the insert was replaced with new pre-warmed media. […] The plate was incubated at 37°C, in humid air containing 5% CO2.
# [8] = system: HIV-1 BaL; experiment: Microbicide activity in the dual-chamber model (HeLa apical, TZM-bl basal; luciferase); conditions: Human immunodeficiency virus 1, BAL
# Experimental: as §4
# The experiments were performed in triplicate and repeated three different times.
# [9] = Cytotoxicity tests on TZM-bl, HeLa, PBMC and H9 cells (summary statements); type: cell-based, human; conditions: human, TZM-bl, HeLa, PBMC, H9; for viability at 24 h: at concentrations between 20 µM–60 µM, read-out: cell viability
# Experimental: as §3
# [10] = system: HIV-1 MN; experiment: Anti-HIV activity in PBMC, HIV-1 MN (p24 ELISA); type: cell-based; conditions: for anti-HIV activity, PBMC cells, HIV-1 MN: concentration not given
# [11] = system: PBMC cells; experiment: Cytotoxicity assay (resazurin fluorometric method), PBMC cells; type: cell-based, human
# [12] = system: HIV-1 89.6; experiment: Anti-HIV activity in PBMC, HIV-1 89.6 (p24 ELISA); type: cell-based; conditions: for anti-HIV activity, PBMC cells, HIV-1 89.6: p24 ELISA, concentration not given; for IC50: Human immunodeficiency virus 1, HIV-1 89.6, p24 ELISA
# Experimental: The viability of the cells was assessed by the resazurin fluometric method as describe previously. After incubation, the supernatant from each well was collected and stored at -80°C for performance of p24 ELISA.
# as §2
# [13] = system: HIV-1 89.6; experiment: Anti-HIV activity in H9 cells, HIV-1 89.6 (p24 ELISA); type: cell-based; conditions: for inhibition of infection / anti-HIV activity, H9 cells, HIV-1 89.6: p24 ELISA, concentration not given
# Experimental: as §1, §2
# [14] = system: TZM-bl cells; experiment: Cytotoxicity assay (resazurin fluorometric method), TZM-bl cells; type: cell-based, human
# [15] = Human immunodeficiency virus 1, H9
# [16] = Human immunodeficiency virus 1, BAL, TZM-bl
# [17] = TZM-bl cells, 24 hours treatment, concentration that kills 50% of the cells
# [18] = Human immunodeficiency virus 1, H9 cells, HIV-1 MN, p24 ELISA, read-out: IC50
# [19] = Human immunodeficiency virus 1, PBMC cells, HIV-1 MN, p24 ELISA, read-out: IC50
# [20] = Human immunodeficiency virus 1, H9 cells, HIV-1 89.6, p24 ELISA, read-out: IC50
smiles,measurement,setting,value
"Cc1cn([C@H]2C[C@H](N=[N+]=[N-])[C@@H](CO)O2)c(=O)[nH]c1=O [AZT, Zidovudine, reference compound]",inhibition at 60 µM,"[1]; Human immunodeficiency virus 1, BAL, TZM-bl, read-out: inhibition of HIV infection by positive control (HIV-1 BaL, TZM-bl)",≥ 90%
same,effect on cell growth,[2],did not affect the cell growth
O=c1c(O)c(-c2cc(O)c(O)c(O)c2)oc2cc(O)cc(O)c12 [Myricetin],LD50,[3]; H9 cells,1059.09 µM
same,"anti-HIV activity greater compared to Pinocembrin, HIV-1 MN, H9",[4]; H9 cells,~2.9 x
same,"anti-HIV activity greater than that of Quercetin, HIV-1 MN, H9",[4]; H9 cells,approximately 1.7 x
same,IC50,[4]; [15],22.9 µM
same,LD50,"[5]; HeLa cells, 24 hours treatment",804.94 µM
same,cell viability in dual-chamber model versus negative control (only cells),[6],no statistically significant difference; also recorded: did not show a statistically significant difference on cell viability
same,TEER of HeLa cell layer before and after flavonoid treatment,[7],208 Ohm/cm^2
same,IC50,[1]; [16],20.4 µM
same,inhibition at 100 µM,"[1]; Human immunodeficiency virus 1, BAL, TZM-bl, read-out: inhibition of HIV-1 BaL infection in TZM-bl cells",> 87%
same,IC50,"[8]; read-out: IC50, HIV-1 BaL infection in dual-chamber system",19.5 µM
same,inhibition at 100 µM,[8]; read-out: inhibition of HIV-1 BaL infection in dual-chamber system,> 88%
same,"viability at 24 h, 100 µM","[9]; PBMC and H9 cells, at 100 µM concentration, read-out: cell viability compared with the negative control (only cells)",≥ 85%
same,IC50,"[10]; Human immunodeficiency virus 1, PBMC",4.49 µM
same,inhibition at 100 µM,"[10]; Human immunodeficiency virus 1, PBMC, read-out: inhibition of HIV-1 MN infection in PBMC cells",86%
same,LD50,[11]; PBMC cells,1159.26 µM
same,inhibition at 100 µM,"[12]; Human immunodeficiency virus 1, PBMC, read-out: inhibition of HIV-1 89.6 infection in PBMC cells",85%
same,"x higher than Pinocembrin, HIV-1 89.6, PBMC",[12]; PBMC cells,16.4 x
same,"x higher than Quercetin, HIV-1 89.6, PBMC",[12]; PBMC cells,12.3 x
same,"anti-HIV activity, PBMC cells, HIV-1 89.6",[12],more than 80%
same,"anti-HIV activity greater than for Pinocembrin, HIV-1 89.6, H9",[13]; H9 cells,23.9 x
same,"anti-HIV activity greater than for Quercetin, HIV-1 89.6, H9",[13]; H9 cells,16.9 x
same,IC50,[13]; [15],1.76 µM
same,LD50,[14]; [17],1214.92 µM and 1214.72 µM
O=C1C[C@@H](c2ccccc2)Oc2cc(O)cc(O)c21 [Pinocembrin],LD50,"[3]; human, 24 h",805.76 µM
same,IC50,[4]; [18],67.2 µM
same,"inhibition of infection / anti-HIV activity, H9 cells, HIV-1 MN",[4]; p24 ELISA,≥ 60%
same,LD50,"[5]; human, 24 h",99.52 µM
same,IC50,"[1]; Human immunodeficiency virus 1, TZM-bl cells, HIV-1 BaL, MOI = 1, read-out: IC50",347 µM
same,"anti-HIV activity compared with the vehicle control (HIV-1 BaL, TZM-bl)",[1],28%
same,viability at 24 h,[9]; PBMC and H9 cells,≥ 85%
same,IC50,[10]; [19],57.7 µM
same,"anti-HIV activity, PBMC cells, HIV-1 MN",[10]; p24 ELISA,67%
same,LD50,"[11]; human, 24 h",788.23 µM
same,IC50,[12]; PBMC cells,53.2 µM
same,"anti-HIV activity, PBMC cells, HIV-1 89.6",[12],51%
same,IC50,[13]; [20],42.2 µM
same,"inhibition of infection / anti-HIV activity, H9 cells, HIV-1 89.6",[13],≥ 60%
same,LD50,"[14]; human, 24 h",67.94 µM
O=c1c(O)c(-c2ccc(O)c(O)c2)oc2cc(O)cc(O)c12 [Quercetin],LD50,[3]; H9 cells,905.76 µM
same,IC50,[4]; [18],38.8 µM
same,"inhibition of infection / anti-HIV activity, H9 cells, HIV-1 MN",[4]; p24 ELISA,≥ 64%
same,LD50,"[5]; HeLa cells, 24 hours treatment",78.20 µM
same,IC50,[1]; [16],89 µM
same,"anti-HIV activity compared with the vehicle control (HIV-1 BaL, TZM-bl)",[1],39%
same,viability at 24 h,[9],≥ 85%
same,IC50,[10]; [19],31.7 µM
same,"anti-HIV activity, PBMC cells, HIV-1 MN",[10]; p24 ELISA,45%
same,LD50,[11]; PBMC cells,813.57 µM
same,IC50,[12]; PBMC cells,39.3 µM
same,"anti-HIV activity, PBMC cells, HIV-1 89.6",[12],59%
same,IC50,[13]; [20],29.8 µM
same,"inhibition of infection / anti-HIV activity, H9 cells, HIV-1 89.6",[13],≥ 64%
same,LD50,[14]; [17],119.23 µM
